The text below walks through data of patent US7572817B2, “2,5-disubstituted 3-mercaptopentanoic acid” (AstraZeneca AB, priority 2002, dated 2009).

The target of the assay is T1, carboxypeptidase U (Homo sapiens, UniProt Q96IY4).
T1 sequence (Q96IY4 115-423): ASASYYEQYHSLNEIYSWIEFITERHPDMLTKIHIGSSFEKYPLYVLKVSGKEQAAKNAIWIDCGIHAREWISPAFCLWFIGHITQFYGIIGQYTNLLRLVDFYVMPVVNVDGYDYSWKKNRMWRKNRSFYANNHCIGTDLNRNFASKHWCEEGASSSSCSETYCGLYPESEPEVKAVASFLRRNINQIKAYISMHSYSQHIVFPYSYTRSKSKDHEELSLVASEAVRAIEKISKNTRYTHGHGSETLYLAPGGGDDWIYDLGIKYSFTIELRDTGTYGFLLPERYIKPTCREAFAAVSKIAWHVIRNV
The experiment in a line: carboxypeptidase U inhibition assay (Hendriks et al., Clinical Chemistry 31, 1936-1939 (1985)). It is filed as biochemical. The following applies: assay of Hendriks, Scharpé and van Sande. An excerpt:
The inhibiting effect of the compounds of the present invention was estimated using the assay described in: Dirk Hendriks, Simon Scharpé and Marc van Sande, Clinical Chemistry, 31, 1936-1939 (1985); and Wei Wang, Dirk F. Hendriks, Simon S. Scharpé, The Journal of Biological Chemistry, 269, 15937-15944 (1994).
The activities of certain Examples in the assay described in: Dirk Hendriks, Simon Scharpé and Marc van Sande, Clinical Chemistry, 31, 1936-1939 (1985) are presented in Table I below.
One may read the IC50 as the concentration that inhibits the measured activity by half. The compound `CN(CC#N)S(=O)(=O)c1cccc(CCC(S)C(Cc2ccc(N)nc2)C(=O)O)c1` (stereo not shown) [Example 47, 2-[(6-Aminopyridin-3-yl)methyl]-5-(3-{[(cyanomethyl)(methyl)amino]-sulfonyl}phenyl)-3-mercaptopentanoic acid] yielded an IC50 of 1000 nM.

The compound `Nc1ccc(CC(C(=O)O)C(S)CCC2CCCS2)cn1` (stereo not shown) [Example 18, 2-[(6-Aminopyridin-3-yl)methyl]-3-mercapto-5-(tetrahydro-2-thienyl)pentanoic acid] had an IC50 of 1000 nM. This counts as single-digit micromolar.

`Nc1ccc(CC(C(=O)O)C(S)CCc2cccc(C(=O)N3CCc4ccccc4C3)c2)cn1` (stereo not shown) [Example 28, 2-[(6-Aminopyridin-3-yl)methyl]-5-[3-(3,4-dihydroisoquinolin-2(1H)-ylcarbonyl)phenyl]-3-mercaptopentanoic acid] came in with an IC50 of 800 nM.

`Nc1ccc(CC(C(=O)O)C(S)CCc2cccc(C(=O)N3CCCC3)c2)cn1` (stereo not shown) [Example 42, 2-[(6-Aminopyridin-3-yl)methyl]-3-mercapto-5-[3-(pyrrolidin-1-ylcarbonyl)phenyl]pentanoic acid]: the midpoint of inhibition, the IC50, lay at 600 nM.

On to `Nc1ccc(CC(C(=O)O)C(S)CCc2cccc(C(=O)NCCF)c2)cn1` (stereo not shown) [Example 33, 2-[(6-Aminopyridin-3-yl)methyl]-5-(3-{[(2-fluoroethyl)amino]carbonyl}phenyl)-3-mercaptopentanoic acid], for which the IC50 is 600 nM.

With `Nc1ccc(CC(C(=O)O)C(S)CCc2ccc3c(c2)OCO3)cn1` (stereo not shown) [Example 7, 2-[(6-Aminopyridin-3-yl)methyl]-5-(1,3-benzodioxol-5-yl)-3-mercaptopentanoic acid], half-maximal inhibition (IC50) required 800 nM.

With `CCOC(=O)C1CCN(C(=O)c2cccc(CCC(S)C(Cc3ccc(N)nc3)C(=O)O)c2)CC1` (stereo not shown) [Example 43, 2-[(6-Aminopyridin-3-yl)methyl]-5-(3-{[4-(ethoxycarbonyl)piperidin-1-yl]carbonyl}phenyl)-3-mercaptopentanoic acid], the midpoint of inhibition, the IC50, lay at 2000 nM.

With `Nc1ncc(CC(C(=O)O)C(S)CCc2ccccc2)s1` (stereo not shown) [Example 24, 2-[(2-Amino-1,3-thiazol-5-yl)methyl]-3-mercapto-5-phenylpentanoic acid], the IC50 came out at 6300 nM.

The compound `Nc1ccc(CC(C(=O)O)C(S)CCc2cccc(Cl)c2)cn1` (stereo not shown) [Example 6, 2-[(6-Aminopyridin-3-yl)methyl]-5-(3-chlorophenyl)-3-mercaptopentanoic acid] returned an IC50 of 800 nM.

Consider `CN(Cc1ccccc1)C(=O)c1cccc(CCC(S)C(Cc2ccc(N)nc2)C(=O)O)c1` (stereo not shown) [Example 41], for which it took 600 nM to reach half-maximal inhibition (IC50).

Turning to `N#CCc1ccc(CCC(S)C(Cc2ccc(N)nc2)C(=O)O)cc1` (stereo not shown) [Example 11, 2-[(6-Aminopyridin-3-yl)methyl]-5-[4-(cyanomethyl)phenyl]-3-mercaptopentanoic acid], the IC50 is 800 nM.

`O=C(O)C(CC1C2CCC1CNC2)C(S)CCc1ccccc1` (stereo not shown) [Example 25, 2-(3-Azabicyclo[3.2.1]oct-8-ylmethyl)-3-mercapto-5-phenylpentanoic acid] returned an IC50 of 4000 nM. This IC50 is about 5-fold higher than that of the compound before.

For the compound `Nc1ccc(CC(C(=O)O)C(S)CCc2cccc(C(=O)OCCc3c(Cl)cccc3Cl)c2)cn1` (stereo not shown) [Example 31, 2-[(6-Aminopyridin-3-yl)methyl]-5-(3-{[2-(2,6-dichlorophenyl)ethoxy]carbonyl}phenyl)-3-mercaptopentanoic acid], the IC50 was 600 nM.
